The text below walks through data of patent publication US5639783A, “Ketone derivatives” (Mitsubishi Chemical Corporation, priority 1991, dated 1997).

The target of one series is T1, papain (Carica papaya, UniProt P00784).
T1 sequence (P00784 134-345): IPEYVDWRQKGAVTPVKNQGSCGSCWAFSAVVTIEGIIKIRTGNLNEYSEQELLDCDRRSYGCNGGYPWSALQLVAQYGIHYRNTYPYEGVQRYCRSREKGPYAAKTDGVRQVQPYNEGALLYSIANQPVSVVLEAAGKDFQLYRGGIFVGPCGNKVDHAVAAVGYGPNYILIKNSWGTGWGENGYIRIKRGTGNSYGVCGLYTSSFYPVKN
Put plainly: Thiol protease inhibitory activity, papain (P-3125, Sigma). Format: biochemical. In short, it runs like this: (§1)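 Papain and bovine cathepsin B assayed by a published method; cathepsin L purified from rat kidney and assayed in the same manner as cathepsin B. m-Calpain purified from rat brain and assayed by a separate published procedure.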

In a further series the target is T2, cathepsin B (Bos taurus, UniProt P07688).
T2 construct: purchased Sigma C-6286
Put plainly: Thiol protease inhibitory activity, cathepsin B (C-6286, Sigma). Format: biochemical. To be noted: Table 3. In outline: as §1

The target of a further series is T3, cathepsin L (Rattus norvegicus, UniProt P07154).
T3 construct: Cathepsin L was purified from rat kidney; from tissue; host or cells: rat kidney
Put plainly: Thiol protease inhibitory activity, cathepsin L purified from rat kidney. The class given is biochemical. Conditions: Table 3. In outline:
as §1

Series [1] concerns the target T4, m-calpain (Rattus norvegicus, UniProt Q07009).
T4 construct: m-calpain was purified from rat brain; from tissue; host or cells: rat brain
T4 sequence (Q07009 20-700 limits assumed): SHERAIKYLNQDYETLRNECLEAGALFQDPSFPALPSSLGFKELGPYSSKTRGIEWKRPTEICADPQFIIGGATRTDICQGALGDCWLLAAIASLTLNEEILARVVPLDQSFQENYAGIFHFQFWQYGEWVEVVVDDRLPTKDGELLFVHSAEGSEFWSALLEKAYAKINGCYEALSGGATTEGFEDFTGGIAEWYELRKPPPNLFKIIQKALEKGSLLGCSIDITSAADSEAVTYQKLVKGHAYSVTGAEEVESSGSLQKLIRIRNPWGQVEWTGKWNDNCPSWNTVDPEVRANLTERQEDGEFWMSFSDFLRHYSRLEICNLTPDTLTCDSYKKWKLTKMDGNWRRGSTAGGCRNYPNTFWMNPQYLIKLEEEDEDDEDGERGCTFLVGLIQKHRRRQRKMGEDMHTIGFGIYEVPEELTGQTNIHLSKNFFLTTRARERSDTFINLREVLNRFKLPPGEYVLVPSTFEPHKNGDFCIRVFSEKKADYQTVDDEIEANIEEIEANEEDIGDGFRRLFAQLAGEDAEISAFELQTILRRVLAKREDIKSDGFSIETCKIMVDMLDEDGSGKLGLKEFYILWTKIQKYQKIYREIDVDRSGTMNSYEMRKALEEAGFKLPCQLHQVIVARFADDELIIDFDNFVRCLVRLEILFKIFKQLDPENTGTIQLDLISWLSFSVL
T4 sequence (Q64537 1-270 partner): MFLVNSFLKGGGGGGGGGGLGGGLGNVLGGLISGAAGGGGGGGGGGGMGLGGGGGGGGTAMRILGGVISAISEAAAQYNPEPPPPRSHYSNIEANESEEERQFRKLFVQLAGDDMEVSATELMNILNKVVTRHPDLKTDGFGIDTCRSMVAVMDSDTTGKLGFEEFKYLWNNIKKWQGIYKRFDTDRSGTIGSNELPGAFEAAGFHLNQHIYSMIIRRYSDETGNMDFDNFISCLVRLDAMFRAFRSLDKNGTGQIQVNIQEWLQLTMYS
Put plainly: Thiol protease inhibitory activity, m-calpain purified from rat brain. The class given is biochemical. Conditions: Table 3. In outline:
as §1

Series [2] deals with T4, m-calpain. As to the kind of experiment: Confirmation of reversible inhibitory activity (remaining m-calpain activity after incubation with inhibitor). Format: biochemical. Conditions: incubated 0 to 20 minutes at 10° C.; 10 μM-150 μM inhibitor solution (1 μl); FIGS. 1 to 3. As to the method:
According to the assay for inhibitory activity against calpain in Experiment 1, reversible inhibitory activity of the present compounds was confirmed as follows.
To an imidazole buffer (54 μl ) were added 500 mM CaCl2 solution (1 μl), 5 mM solution of the synthetic substrate described in the literature (4 μl), 10 μM-150 μM inhibitor solution (1 μl) and m-calpain solution (40 μl), and the mixture was incubated for 0 to 20 minutes at a temperature of 10° C. Then, 100 mM EDTA solution (5 μl) was added to inactivate the enzymatic activity. To the mixture was then added imidazole buffer (900 μl) followed by an addition of 5 mM synthetic substrate solution (40 μl) and 500 mM CaCl2 solution (10 μl), and the decomposition rate of the synthetic substrate was measured for 10 minutes at a temperature of 30° C. to determine the remaining activity of the enzyme.
The compounds of Examples 3, 113 and 190 were used as the inhibitor, and E-64 which is an irreversible inhibitor was also used for comparison.

The nature of the next series: in vivo. To be noted: rat, po. As to the method: The LD50 value of the compound prepared in Example 94 was: >2,000 mg/kg.
Series [3] concerns experimental muscular dystrophy hamster. Conditions: Journal of Pharmacobio dynamics, 10, 678 (1987); cited from earlier work.
The subject of the next series is aggregation of platelet. To be noted: Thrombosis Research, 57, p. 847 (1990); cited from earlier work.
Another series deals with cataract animal models. To be noted: Investigative Ophthalmology & Visual Science, 32, p. 533 (1991); cited from earlier work.
Series [4] has as its system rat which has an enhanced bone destruction by administration of parathyroid hormone. To be noted: cited from earlier work.
The subject of a further series is production of IgE. To be noted: The Journal of Antibiotics, 42, p. 1362 (1989); cited from earlier work.

The structures appear in SMILES notation. Read-outs that look alike come from different tables or passages of the source. Some results are limits rather than exact numbers.

T3 sequence (P07154 114-334): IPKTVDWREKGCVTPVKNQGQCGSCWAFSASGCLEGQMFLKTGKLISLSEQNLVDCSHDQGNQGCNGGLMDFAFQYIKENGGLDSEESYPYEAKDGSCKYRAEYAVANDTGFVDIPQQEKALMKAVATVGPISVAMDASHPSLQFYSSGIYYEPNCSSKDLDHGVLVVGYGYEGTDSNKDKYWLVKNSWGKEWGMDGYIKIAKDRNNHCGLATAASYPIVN

The IC50 is the midpoint of a concentration-inhibition curve. As for `CCCC[C@H](NC(=O)[C@H](CC(C)C)NC(=O)COc1ccccc1)C(=O)CSCc1ccco1` [3 (No. 82), (s)-1-furfurylthio-3-((s)-4-methyl-2-phenoxyacetylaminovalerylamino)-2-heptanone], the IC50 at papain is 0.26 µM; against cathepsin B, 0.71 µM; against cathepsin L, 0.016 µM; on m-calpain [1], 3.3 µM. Besides, on m-calpain [2], the “remaining enzymatic activity after incubation with inhibitor (reversible inhibition)” value is given as “activity nearly equal to that of a control remained”.
By LD50 is commonly meant the dose expected to kill half of the subjects tested. Turning to `CCCC[C@H](NC(=O)[C@H](CC(C)C)NC(=O)c1cc(=O)c2ccccc2o1)C(=O)CSCc1ccco1` [94 (No. 188), (s)-1-furfurylthio-3-[(s)-4-methyl-2-(4-oxo-4H-1-benzopyranylcarbonylamino)valerylamino]-2-heptanone], the IC50 on papain worked out at 0.77 µM; against cathepsin B, 1.1 µM; against cathepsin L it was 0.024 µM; at m-calpain [1], 9.2 µM. Moreover, the median lethal dose (LD50) at 168 h in “in vivo” is more than 2000 mg/kg.
With `CC(C)C[C@H](NC(=O)c1cc2ccccc2o1)C(=O)N[C@@H](Cc1ccccc1)C(=O)CSCc1ccco1` [174 (No. 382), (s)-3-[(s)-2-(2-benzofuranylcarbonylamino)-4-methylvalerylamino]-1-furfurylthio-4-phenyl-2-butanone], the IC50 at papain (Table 3, read-out: IC50 papain) is 12 µM; on cathepsin B, 23 µM; against cathepsin L it was 1.6 µM; against m-calpain [1], 16 µM.
On to `CC(C)C[C@H](NC(=O)OCc1ccccc1)C(=O)N[C@@H](Cc1ccccc1)C(=O)CN(C)C` [190 (No. 465), (s)-3-((s)-2-benzyloxycarbonylamino-4-methylvalerylamino)-1-dimethylamino-4-phenyl-2-butanone], for which the IC50 came out at 40 µM on papain (Table 3, read-out: IC50 papain); 1.6 µM on cathepsin B; 2.8 µM at cathepsin L; 7.3 µM on m-calpain [1]. Besides, at m-calpain [2], the “remaining enzymatic activity after incubation with inhibitor (reversible inhibition)” value is listed as “activity nearly equal to that of a control remained”.
Consider `CC(C)C[C@H](NC(=O)OCc1ccccc1)C(=O)N[C@@H](Cc1ccccc1)C(=O)CN(C)Cc1ccco1` [191 (No. 479), (s)-3-((s)-2-benzyloxycarbonylamino-4-methylvalerylamino)-1-(N-methylfurfurylamino)-4-phenyl-2-butanone], for which the IC50 on papain (Table 3, read-out: IC50 papain) is more than 100 µM; against cathepsin B it was 3.5 µM; on cathepsin L it was 9.3 µM; against m-calpain [1] it was 24 µM.
Consider `CC(C)C[C@H](NC(=O)COc1ccccc1)C(=O)N[C@@H](Cc1ccc(Cl)cc1)C(=O)CSCc1ccco1` [197 (No. 511), (s)-4-(4-chlorophenyl)-1-furfurylthio-3-((s)-4-methyl-2-phenoxyacetylaminovalerylamino)-2-butanone], for which the 50% inhibitory concentration (IC50) was 13 µM at papain, 6 µM on cathepsin B, 1.7 µM against cathepsin L and 7.8 µM on m-calpain [1].
For the molecule `CSCC(=O)[C@H](CCc1ccccc1)NC(=O)[C@H](CC(C)C)NC(=O)OCc1ccccc1` [202 (No. 534), (s)-3-((s)-2-benzyloxycarbonylamino-4-methylvalerylamino)-1-methylthio-5-phenyl-2-pentanone], the half-inhibitory concentration (IC50) was more than 100 µM at papain (Table 3, read-out: IC50 papain); 0.25 µM against cathepsin B; 0.39 µM at cathepsin L; 13 µM on m-calpain [1].
As to `CSCC(=O)[C@H](CCc1ccccc1)NC(=O)[C@H](CC(C)C)NC(=O)COc1ccccc1` [203 (No. 536), (s)-3-((s)-4-methyl-2-phenoxyacetylaminovalerylamino)-1-methylthio-5-phenyl-2-pentanone], the half-inhibitory concentration (IC50) stood at 4.4 µM against papain, 0.34 µM on cathepsin B, 0.38 µM against cathepsin L and 9.1 µM against m-calpain [1].
The like results for `CC(C)C[C@H](NC(=O)COc1ccccc1)C(=O)N[C@@H](CCc1ccccc1)C(=O)CSCc1ccco1` [206 (No. 543), (s)-1-furfurylthio-3-((s)-4-methyl-2-phenoxyacetylaminovalerylamino)-5-phenyl-2-pentanone] were, in that order, 6 µM, 0.82 µM, 0.62 µM and 15 µM.
As to `CC(C)C[C@H](NC(=O)COc1ccccc1)C(=O)NC(Cc1cccc2ccccc12)C(=O)CSCc1ccco1` (stereo partly drawn) [209 (No. 555), l-furfurylthio-3-((s)-4-methyl-2-phenoxyacetylaminovalerylamino)-4-(1-naphtyl)-2-butanone], the IC50 on papain (Table 3, read-out: IC50 papain) stood at 9 µM; against cathepsin B, 6.5 µM; against cathepsin L, 1.5 µM; against m-calpain [1] it was 19 µM.
Turning to `CC(C)C[C@H](NC(=O)OCc1ccccc1)C(=O)N[C@@H](CCC(=O)O)C(=O)CSCc1ccco1` [217 (No. 600), (s)-4-((s)-2-benzyloxycarbonylamino-4-methylvalerylamino)-6-furfurylthio-5-oxohexanoic Acid], the concentration for half-maximal inhibition (IC50) was found to be 26 µM at papain (Table 3, read-out: IC50 papain); 2.5 µM against cathepsin B; 11 µM against cathepsin L; 19 µM against m-calpain [1].
In the case of `CCOC(=O)[C@H]1O[C@@H]1C(=O)N[C@@H](CC(C)C)C(=O)NCCC(C)C` [E-64-d], in series [3], the “effect in experimental muscular dystrophy hamster” value is given as “life-prolonging effect”. For the same molecule, the “aggregation of platelet caused by thrombin” value in the series on aggregation of platelet was “suppressed aggregation of platelet caused by thrombin”.
As for `CC(C)C[C@H](NC(=O)[C@H]1O[C@@H]1C(=O)O)C(=O)NCCCCNC(=N)N` [E-64], at m-calpain [2], the “remaining enzymatic activity after incubation with inhibitor (reversible inhibition)” value is recorded as “enzymatic activity rapidly disappeared in proportion to the incubation period”. Moreover, the effect on cataract entry in the series on cataract animal models is listed as “effective on cataract in animal models”. For the same molecule, the “calcium concentration and hydroxyproline concentration in blood” value in [4] was “decrease of calcium concentration and hydroxyproline concentration in blood”.
With `NC(N)=NCCCCNC(=O)[C@H](Cc1ccccc1)NC(=O)[C@H]1O[C@@H]1C(=O)O` [Estatin A], in the series on production of IgE, the “production of IgE” value is “specifically inhibit the production of IgE without affecting on the production of IgG”. The “calcium concentration and hydroxyproline concentration in blood” value in [4] was “decrease of calcium concentration and hydroxyproline concentration in blood”.
Consider `CSCC(=O)[C@H](Cc1ccccc1)NC(=O)[C@H](CC(C)C)NC(=O)OCc1ccccc1` [Example 113, (s)-3-((s)-2-benzyloxycarbonylamino-4-methylvalerylamino)-1-methylthio-4-phenyl-2-butanone], for which the “remaining enzymatic activity after incubation with inhibitor (reversible inhibition)” value at m-calpain [2] is given as “activity nearly equal to that of a control remained”.
